# Laboratory results: paper PMC4594035, “Xenopus borealis as an alternative source of oocytes for biophysical and pharmacological studies of neuronal ion channels” (Scientific Reports, 2015)
# Like-named read-outs stand apart in the source and are kept apart here. Bridge positions count the residues as written; N and C are the ends. Ends that are not written are not given here.
# Tests used:
# [1] = system: NaV1.7; assay: Inhibition of NaV1.7 by ProTx-I, two-electrode voltage-clamp in Xenopus oocytes; format: cell-based; details: 300 nM ProTx-I; depolarisation to –15 mV from holding potential −80 mV; n = 8–9; Fig. 3f; P > 0.05
# Method: (§1) X. laevis (Xenopus Express) and X. borealis (Nasco) oocytes were surgically removed from anaesthetised (Tricaine methanesulfonate, MS-222) female frogs and treated with collagenase (1 mg/ml; Sigma type I) for defolliculation. cRNAs were synthesised using an mMessage mMachine cRNA transcription kit (Ambion Inc., Austin, TX, USA) and injected into stage V–VI oocytes at 4–200 ng per cell. Oocytes were stored at 17 °C in ND96 solution (96 mM NaCl, 1.8 mM CaCl2, 2 mM KCl, 2 mM MgCl2, 5 mM HEPES, pH 7.4) supplemented with 2.5 mM pyruvic acid, 50 μg/mL gentamicin, and either 2.5% horse serum or 0.5 mM theophylline. Membrane currents were recorded 2–10 days after injection under voltage-clamp (Axoclamp 900A or Geneclamp 500B, Molecular Devices, CA, USA) using two standard glass microelectrodes of 0.5–2 MΩ resistance when filled with 3 M KCl solution. Data acquisition and analysis were performed using pCLAMP software (Version 9.2 or 10, Molecular Devices, Sunnyvale, CA, USA). All experiments were performed at room temperature (18–21 °C) in ND96 solution. Experiments containing peptides were performed in ND96 solution containing 0.1% fatty acid free-bovine serum albumin (Sigma). […]
# (§2) All data were analysed using Prism 6.0 (GraphPad Software, San Diego, CA, USA). […] For both t-tests, it was assumed data was sampled from Gaussian populations, and P values were calculated from two-tailed tests. […]
# [2] = system: NaV1.2; assay: Inhibition of NaV1.2 by ProTx-I, two-electrode voltage-clamp in Xenopus oocytes; format: cell-based; details: 300 nM ProTx-I; depolarisation to –15 mV from holding potential −80 mV; n = 8–9; Fig. 3f; P > 0.05
# Method: as §1, §2
# [3] = system: NaV1.5; assay: Inhibition of NaV1.5 by ProTx-I, two-electrode voltage-clamp in Xenopus oocytes; format: cell-based; details: 300 nM ProTx-I; depolarisation to –15 mV from holding potential −80 mV; n = 8–9; Fig. 3f; P > 0.05
# Method: as §1, §2
# [4] = system: NaV channel; details: cited from earlier work
# Method: Two-electrode voltage-clamp electrophysiology recordings were performed to compare the properties of a panel of KV and voltage-gated sodium (NaV) channels heterologously expressed in X. laevis and X. borealis oocytes. […] Conductance-voltage relationship curves obtained for NaV1.2 (Fig. 3c), NaV1.5 (Fig. 3d), and NaV1.7 (Fig. 3e) overlap ...
# [5] = target: T1, rat ASIC3 (Rattus norvegicus, UniProt O35240); assay: Inhibition of rat ASIC3 by APETx2, two-electrode voltage-clamp in Xenopus oocytes; format: cell-based; details: ND96 with 0.1% fatty acid free-bovine serum albumin, 18–21 °C, mean, n = 9, Supplementary Table S3, read-out: IC50 (half-maximal response)
# T1 construct: expressed in transfected cells; host or cells: Xenopus laevis and Xenopus borealis oocytes (cRNA injection)
# T1 sequence (O35240 1-533): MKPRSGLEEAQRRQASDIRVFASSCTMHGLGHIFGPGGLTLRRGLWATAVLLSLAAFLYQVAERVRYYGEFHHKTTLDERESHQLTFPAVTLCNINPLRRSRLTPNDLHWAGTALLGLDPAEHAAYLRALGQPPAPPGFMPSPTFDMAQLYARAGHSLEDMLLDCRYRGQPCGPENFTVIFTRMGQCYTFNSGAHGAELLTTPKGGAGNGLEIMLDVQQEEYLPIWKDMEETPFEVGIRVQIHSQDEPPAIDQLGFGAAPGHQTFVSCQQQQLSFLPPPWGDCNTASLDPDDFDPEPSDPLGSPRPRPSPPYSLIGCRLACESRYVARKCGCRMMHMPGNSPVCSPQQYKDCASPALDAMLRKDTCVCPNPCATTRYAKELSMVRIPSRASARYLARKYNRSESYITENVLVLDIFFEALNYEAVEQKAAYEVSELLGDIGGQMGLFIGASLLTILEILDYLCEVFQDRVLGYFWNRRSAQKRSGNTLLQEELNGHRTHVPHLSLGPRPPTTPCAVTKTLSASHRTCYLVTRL
# Method: as §1, §2
# [6] = target: α5β2γ2L GABAAR (Homo sapiens, UniProt P31644+P47870); assay: GABA activation of α5β2γ2L GABAAR, two-electrode voltage-clamp in Xenopus oocytes; format: cell-based; details: n = 9–10; for Slope (Hill coefficient): mean
# Method: (§3) X. laevis (Xenopus Express) and X. borealis (Nasco) oocytes were surgically removed from anaesthetised (Tricaine methanesulfonate, MS-222) female frogs and treated with collagenase (1 mg/ml; Sigma type I) for defolliculation. cRNAs were synthesised using an mMessage mMachine cRNA transcription kit (Ambion Inc., Austin, TX, USA) and injected into stage V–VI oocytes at 4–200 ng per cell. Oocytes were stored at 17 °C in ND96 solution (96 mM NaCl, 1.8 mM CaCl2, 2 mM KCl, 2 mM MgCl2, 5 mM HEPES, pH 7.4) supplemented with 2.5 mM pyruvic acid, 50 μg/mL gentamicin, and either 2.5% horse serum or 0.5 mM theophylline. Membrane currents were recorded 2–10 days after injection under voltage-clamp (Axoclamp 900A or Geneclamp 500B, Molecular Devices, CA, USA) using two standard glass microelectrodes of 0.5–2 MΩ resistance when filled with 3 M KCl solution. Data acquisition and analysis were performed using pCLAMP software (Version 9.2 or 10, Molecular Devices, Sunnyvale, CA, USA). All experiments were performed at room temperature (18–21 °C) in ND96 solution. Experiments containing peptides were performed in ND96 solution containing 0.1% fatty acid free-bovine serum albumin (Sigma). Recordings were performed as previously described for ASICs[30][31], GABAAR[32][33], GlyR[34], KV[6][8][35], and NaV[36] channels.
# (§4) All data were analysed using Prism 6.0 (GraphPad Software, San Diego, CA, USA). The Hill equation was fitted to normalised concentration-response curves to obtain the half-maximal response (EC50, IC50, or pH50) and Hill coefficient (nH). Voltage-dependent activation curves were fit with the Boltzmann equation to obtain the V0.5 (the voltage corresponding to half-maximal effect). Data are shown as mean and 95% confidence intervals, and n represents the number of oocytes for a given experiment (taken from at least three different frogs). […] For both t-tests, it was assumed data was sampled from Gaussian populations, and P values were calculated from two-tailed tests. […]
# [7] = target: α1β2γ2L GABAAR (Homo sapiens, UniProt P14867+P47870); assay: GABA activation of α1β2γ2L GABAAR, two-electrode voltage-clamp in Xenopus oocytes; format: cell-based; details: n = 9–10; for Slope (Hill coefficient): mean
# Method: as §3, §4
# [8] = target: α5β3γ2L GABAAR (Homo sapiens, UniProt P28472+P31644); assay: GABA activation of α5β3γ2L GABAAR, two-electrode voltage-clamp in Xenopus oocytes; format: cell-based; details: n = 9–10; for Slope (Hill coefficient): mean
# Method: as §3, §4
# [9] = system: α1N203C GlyR; details: for ΔFmax (maximal fluorescence change) / ΔImax (maximal current change) / Slope, ΔF / Slope, ΔI / EC50: MTS-TAMRA labelled, mean ± s.e.m.; for Slope, ΔF / Slope, ΔI / EC50: n = 4–6; for EC50: −40 mV
# Description: (§5) This technique permits the real time monitoring of conformational changes in ion channel domains distant from the gate. It involves introducing a cysteine into the ion channel domain of interest and covalently labelling it with a sulfhydryl-reactive rhodamine derivative such as MTSR. As the quantum efficiency of the rhodamine depends on the hydrophobicity of its environment, protein conformational changes occurring in the immediate vicinity of the attached fluorophore are likely to change the hydrophobicity of its environment and thus produce a fluorescence change. […] Conformational changes at the channel gate are monitored simultaneously using two-electrode voltage-clamp. For these recordings, DNA encoding the α1 GlyR subunit was subcloned into pGEMHE, a plasmid vector optimised for oocyte expression. […] Both sites have previously been characterised extensively using voltage-clamp fluorometry. A C41A mutation was incorporated into the α1 GlyR to eliminate the sole non-crosslinked extracellular sulfhydryl group. Site directed mutagenesis was performed using the QuikChange mutagenesis kit (Stratagene).
# (§6) On the day of recording, oocytes were transferred into ND96 and stored on ice. For a subset of experiments, a modified version of the previously described approach[39] for vitelline membrane disruption and removal was performed by incubating oocytes in ND96 containing 0.5 mg/ml protease (protease type VIII from Bacillus licheniformis, Sigma-Aldrich) for 1–1.5 min before labelling. Following this, a sequential wash step was performed by transferring oocytes into fresh ND96 solution five consecutive times. To label with either MTSR or MTS-TAMRA (Toronto Research Chemicals), oocytes were transferred into labelling solution containing 10 μM of either compound in ND96 for 25 s. The oocytes were then washed and stored in ND96 for up to 6 h before recording. All labelling steps were performed on ice.
# (§7) We recently described the experimental set up in detail. Briefly, we employed an inverted microscope (Eclipse TE300, Nikon Instruments) equipped with a high-Q tetramethylrhodamine isothiocyanate filter set (Chroma Technology), a Plan Fluor X40 objective (Nikon Instruments) and an H7360-03 photomultiplier detection system (Hamamatsu Photonics) attached to the side port of the microscope. An excitation filter wheel including a shutter and emission filter wheel were controlled through a Lambda 10-2 unit (Sutter Instruments). A Lambda LS 175 W xenon arc lamp served as a light source and was coupled to the microscope via a liquid light guide (Sutter Instruments). The design of the custom-made recording chamber has been described. An automated perfusion system operated by a ValveBank-8 valve controller (AutoMate Scientific) was used for perfusion of the recording chamber. Electrodes were moved by automated ROE-200 micromanipulators coupled to an MPC-200 controller (Sutter Instruments). Cells were voltage-clamped at −40 mV and currents recorded using a Gene Clamp 500B amplifier (Molecular Devices). Current and fluorescence traces were acquired at 200 Hz via a Digidata 1322A interface and pCLAMP 9.2 software.
# (§8) All data were analysed using Prism 6.0 (GraphPad Software, San Diego, CA, USA). The Hill equation was fitted to normalised concentration-response curves to obtain the half-maximal response (EC50, IC50, or pH50) and Hill coefficient (nH). Voltage-dependent activation curves were fit with the Boltzmann equation to obtain the V0.5 (the voltage corresponding to half-maximal effect). Data are shown as mean and 95% confidence intervals, and n represents the number of oocytes for a given experiment (taken from at least three different frogs). Most equivalence testing comparing X. laevis and X. borealis oocytes was performed using an unpaired Student’s t-test with 95% confidence intervals.
# [10] = system: α1R271C GlyR; details: MTSR labelled, mean ± s.e.m.; for Slope, ΔF / Slope, ΔI / EC50: n = 4–6; for EC50: −40 mV
# Description: as §5, §6, §7, §8
# [11] = X. laevis compared with X. borealis oocytes
# [12] = read-out: EC50, ΔF (glycine-induced fluorescence change), X. laevis oocytes
# [13] = read-out: EC50, ΔI (glycine-induced current), X. borealis oocytes
# [14] = read-out: EC50, ΔI (glycine-induced current), X. laevis oocytes
# Sequence of α5β2γ2L GABAAR (P31644 32-462): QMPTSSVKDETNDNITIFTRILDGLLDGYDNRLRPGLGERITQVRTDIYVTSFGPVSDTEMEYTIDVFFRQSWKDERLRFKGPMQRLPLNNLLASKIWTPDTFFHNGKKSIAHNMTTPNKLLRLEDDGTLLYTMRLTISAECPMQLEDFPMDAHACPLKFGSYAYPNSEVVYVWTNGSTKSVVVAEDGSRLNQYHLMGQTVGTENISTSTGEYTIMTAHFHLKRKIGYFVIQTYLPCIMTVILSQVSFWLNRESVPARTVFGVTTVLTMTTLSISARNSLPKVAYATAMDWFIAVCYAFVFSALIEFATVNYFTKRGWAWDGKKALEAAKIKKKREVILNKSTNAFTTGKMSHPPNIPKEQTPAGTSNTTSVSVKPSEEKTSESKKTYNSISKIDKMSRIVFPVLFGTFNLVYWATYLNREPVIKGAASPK
# Sequence of α5β2γ2L GABAAR (P47870 26-512): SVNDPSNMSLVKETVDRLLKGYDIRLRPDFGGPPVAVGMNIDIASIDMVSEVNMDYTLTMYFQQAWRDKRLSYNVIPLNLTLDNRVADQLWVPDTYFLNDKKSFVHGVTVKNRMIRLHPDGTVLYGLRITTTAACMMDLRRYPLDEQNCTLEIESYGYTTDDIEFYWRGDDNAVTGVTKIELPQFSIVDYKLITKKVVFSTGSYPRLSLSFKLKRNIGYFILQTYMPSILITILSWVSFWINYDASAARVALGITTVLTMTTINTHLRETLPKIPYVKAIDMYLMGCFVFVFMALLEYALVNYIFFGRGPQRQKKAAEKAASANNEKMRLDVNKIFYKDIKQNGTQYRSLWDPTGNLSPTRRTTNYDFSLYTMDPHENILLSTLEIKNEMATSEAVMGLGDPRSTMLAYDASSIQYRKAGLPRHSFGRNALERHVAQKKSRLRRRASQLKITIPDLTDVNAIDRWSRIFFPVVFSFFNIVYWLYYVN
# Sequence of α5β2γ2L GABAAR (P18507 40-475 partner): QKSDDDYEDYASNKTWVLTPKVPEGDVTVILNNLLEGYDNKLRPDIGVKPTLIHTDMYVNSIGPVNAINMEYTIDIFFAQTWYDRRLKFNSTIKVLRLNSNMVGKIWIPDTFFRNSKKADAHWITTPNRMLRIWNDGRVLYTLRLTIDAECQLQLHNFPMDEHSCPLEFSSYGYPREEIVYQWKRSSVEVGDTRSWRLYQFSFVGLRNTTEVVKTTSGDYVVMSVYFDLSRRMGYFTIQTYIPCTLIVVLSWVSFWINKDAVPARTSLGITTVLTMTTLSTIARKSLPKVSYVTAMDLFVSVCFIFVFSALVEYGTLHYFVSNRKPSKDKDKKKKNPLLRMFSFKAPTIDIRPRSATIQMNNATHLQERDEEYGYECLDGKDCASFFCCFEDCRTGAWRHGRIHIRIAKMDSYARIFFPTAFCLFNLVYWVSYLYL
# Sequence of α5β3γ2L GABAAR (P31644 32-462): as the sequence (P31644 32-462) above
# Sequence of α5β3γ2L GABAAR (P28472 26-473): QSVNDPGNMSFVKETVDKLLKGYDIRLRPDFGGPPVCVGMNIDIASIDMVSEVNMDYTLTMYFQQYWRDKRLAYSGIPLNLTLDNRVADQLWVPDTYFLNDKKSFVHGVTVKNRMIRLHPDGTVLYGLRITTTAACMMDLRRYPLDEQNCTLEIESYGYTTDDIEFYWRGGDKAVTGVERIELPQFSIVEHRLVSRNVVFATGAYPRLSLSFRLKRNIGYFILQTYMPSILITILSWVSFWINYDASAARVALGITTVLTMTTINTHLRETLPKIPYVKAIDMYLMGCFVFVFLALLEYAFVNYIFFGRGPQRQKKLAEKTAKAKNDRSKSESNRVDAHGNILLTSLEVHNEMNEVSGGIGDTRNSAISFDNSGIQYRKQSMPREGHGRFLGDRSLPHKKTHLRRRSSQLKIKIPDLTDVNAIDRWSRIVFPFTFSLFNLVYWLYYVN
# Sequence of α5β3γ2L GABAAR (P18507 40-475 partner): as the sequence (P18507 40-475 partner) above
# Sequence of α1β2γ2L GABAAR (P14867 28-456): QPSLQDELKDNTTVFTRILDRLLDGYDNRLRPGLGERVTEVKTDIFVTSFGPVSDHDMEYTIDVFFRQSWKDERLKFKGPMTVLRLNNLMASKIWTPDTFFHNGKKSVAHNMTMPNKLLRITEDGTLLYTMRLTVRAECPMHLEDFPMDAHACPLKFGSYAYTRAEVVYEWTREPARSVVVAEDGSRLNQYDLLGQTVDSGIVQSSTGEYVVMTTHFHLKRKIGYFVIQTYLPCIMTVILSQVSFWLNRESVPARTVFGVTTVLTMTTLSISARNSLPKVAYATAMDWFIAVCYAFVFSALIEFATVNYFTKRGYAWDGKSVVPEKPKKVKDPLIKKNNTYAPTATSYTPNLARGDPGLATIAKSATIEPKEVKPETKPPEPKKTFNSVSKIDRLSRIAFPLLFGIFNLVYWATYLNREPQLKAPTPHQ
# Sequence of α1β2γ2L GABAAR (P47870 26-512): as the sequence (P47870 26-512) above
# Sequence of α1β2γ2L GABAAR (P18507 40-475 partner): as the sequence (P18507 40-475 partner) above
molecule,measurement,setting,value
ProTx-I,"Inhibition by ProTx-I, X. laevis vs X. borealis",[1],Comparable levels of inhibition between species
same,"Inhibition by ProTx-I, X. laevis vs X. borealis",[2],Comparable levels of inhibition between species
same,"Inhibition by ProTx-I, X. laevis vs X. borealis",[3],Comparable levels of inhibition between species
same,NaV channel inhibition,[4],potent and non-selective NaV channel inhibitor
"GTACSCGNSKGIYWFYRPSCPTDRGYTGSCRYFLGTCCTPAD (disulfide 4-37, 6-30, 20-38) [APETx2]",IC50,[5]; X. borealis oocytes,51.1 nM
same,IC50,[5]; X. laevis oocytes,64.7 nM
"NCCCC(=O)O [GABA, γ-aminobutyric acid]",Slope (Hill coefficient),[6]; X. borealis oocytes,0.74
same,"Concentration-effect curves for GABA activation, X. laevis vs X. borealis",[6]; [11],no difference in the concentration-effect curves
same,Slope (Hill coefficient),[6]; X. laevis oocytes,0.49
same,Slope (Hill coefficient),[7]; X. borealis oocytes,0.60
same,"Concentration-effect curves for GABA activation, X. laevis vs X. borealis",[7]; [11],no difference in the concentration-effect curves
same,Slope (Hill coefficient),[7]; X. laevis oocytes,0.56
same,Slope (Hill coefficient),[8]; X. borealis oocytes,0.93
same,"Concentration-effect curves for GABA activation, X. laevis vs X. borealis",[8]; [11],no difference in the concentration-effect curves
same,Slope (Hill coefficient),[8]; X. laevis oocytes,0.75
NCC(=O)O [glycine],ΔF after 1 min protease treatment vs untreated oocytes,"[9]; 10 μM glycine, protease (type VIII, 0.5 mg/ml) 1 min before labelling, n = 7, Fig. 5b","A significant increase in ΔF was obtained after 1 min treatment with protease for X. borealis, but not X. laevis, oocytes"
same,ΔFmax (maximal fluorescence change),[9]; X. borealis oocytes,27.8 ± 4.4%
same,ΔImax (maximal current change),[9]; X. borealis oocytes,8.0 ± 0.8 µA
same,"Slope, ΔF",[9]; X. borealis oocytes,1.8 ± 0.1
same,"Slope, ΔI",[9]; X. borealis oocytes,1.5 ± 0.1
same,ΔFmax (maximal fluorescence change),[9]; X. laevis oocytes,25.9 ± 4.2%
same,ΔImax (maximal current change),[9]; X. laevis oocytes,8.4 ± 0.2 µA
same,"Slope, ΔF",[9]; X. laevis oocytes,1.4 ± 0.2
same,"Slope, ΔI",[9]; X. laevis oocytes,1.9 ± 0.2
same,EC50,[9]; [12],548 ± 25 µM
same,EC50,[9]; [13],136 ± 8.7 µM
same,EC50,[9]; [14],145 ± 10 µM
same,ΔFmax (maximal fluorescence change),[10]; X. borealis oocytes,9.0 ± 2.2%
same,ΔImax (maximal current change),[10]; X. borealis oocytes,2.7 ± 0.5 µA
same,"Slope, ΔF",[10]; X. borealis oocytes,1.0 ± 0.1
same,"Slope, ΔI",[10]; X. borealis oocytes,2.0 ± 0.2
same,ΔFmax (maximal fluorescence change),[10]; X. laevis oocytes,12.2 ± 2.2%
same,ΔImax (maximal current change),[10]; X. laevis oocytes,3.4 ± 1.7 µA
same,"Slope, ΔF",[10]; X. laevis oocytes,1.3 ± 0.2
same,"Slope, ΔI",[10]; X. laevis oocytes,1.4 ± 0.2
same,EC50,"[10]; read-out: EC50, ΔF (glycine-induced fluorescence change), X. borealis oocytes",1.01 ± 0.098 mM
same,EC50,[10]; [12],0.872 ± 0.058 mM
same,EC50,[10]; [13],1.7 ± 0.104 mM
same,EC50,[10]; [14],1.93 ± 0.175 mM
